# In patent US11974552B2, “Transgenic C57BL6-BTBR mouse with a humanized MHC II gene that expresses GAD65” (The University of Toledo, priority 2018, dated 2024):
# Tested on: pancreatic lymph nodes (PLN) CD4 and CD8 T cells of humanized T1D mice
# Assay: In-vitro CFSE proliferation assay of pancreatic lymph node T cells stimulated with rGAD65
# Format: cell-based
# Details: pulse stimulation 4 ug/ml for 4 days; PLN single cell suspension of diabetic mouse; CFSE tracking
# Experimental: FIG. 6C: rGAD65 induced proliferation of CD4 and CD8 cells, pancreatic lymph nodes (PLN) were isolated from humanized T1D mice and were stimulated with GAD65 (4 μg/ml) for 4 days (n=4). The proliferation of cells were tracked using CFSE and analyzed by FLOWJO V10 Beta software using fix ratio, fix CV and fix background from the un-stimulated cells.
# The diabetogenic T cells are auto-antigen specific in nature. The pancreatic lymph nodes (PLN) of a diabetic mouse were isolated and the single cell suspension was stimulated with recombinant human GAD65 protein (4 ug/ml). In-vitro proliferation assay using carboxyfluorescein succinimidyl ester (CFSE) to track the T cell proliferation was performed. Pulse stimulation with human rGAD65 (4 ug/ml) for 4 days increased the CD4 and CD8 proliferation by 9-10 folds (FIG. 6C).
substance,measurement,value
human rGAD65: recombinant human Glutamic Acid Decarboxylase 65 protein used as autoantigen stimulus,increase of CD4 and CD8 proliferation,9-10 folds
